3 compounds from paper PMC8467136, “Enabling Efficient Folding and High-Resolution Crystallographic Analysis of Bracelet Cyclotides” (Molecules, 2021) can be followed below.

In one data set the test system is HeLa cells. As to the kind of experiment: Cytotoxicity against HeLa cells, resazurin assay. The conditions noted are these: 5000 cells/well, 24-h incubation with peptide, then resazurin 18 h, triplicate, mean ± SEM. Format: cell-based. On the procedure:
To further confirm the activity of these mutants, their cytotoxicity against HeLa cancer cells was evaluated along with wild-type bracelet cyclotides. […] Of the four [I11G] mutants, the hyen D analogue had the highest activity, possibly because hyen D has one more hydrophobic residue in loop 3 compared to the other three cyclotides, which may contribute to its higher lipid-binding capacity (P/L max = 0.37) and help offset the hydrophobicity loss caused by the [I11G] mutation.
The cytotoxicity of the peptides was evaluated using the resazurin assay, as described previously. HeLa cells were seeded at 5000 cells/well in a 96-well, flat-bottomed plate one day prior to the experiments. Peptide solutions were prepared in water and incubated with HeLa cells at concentrations ranging from 16 to 0.125 μM or 8 to 0.063 μM in triplicate (final concentrations). Water and 1% Triton X-100 (TX) were applied as negative and positive control, respectively. After 24-h incubation, 10 μL of resazurin (0.05%, w/v) was added and incubated with cells for another 18 h. The absorbance was measured at 540 and 620 nm on a microplate reader (Infinite M1000 Pro microplate reader, Tecan, Switzerland). The percentage of cell death was quantified by calculating the absorbance ratio, R (R = absorbance at 620/540), and applying the following equation: % Cell death = (Rsample − RH2O)/(RTX − RH2O) × 100. Data were analyzed with GraphPad Prism software (version 8.3.1) using Specific binding with Hill slope algorithm.
A general note: Alamar Blue is a resazurin reagent that responds to reducing activity.

Data set [1] concerns POPC/POPE (80:20) model membrane. As to the kind of experiment: Membrane binding to POPC/POPE lipid bilayers by surface plasmon resonance (SPR). The conditions noted are these: BIAcore T200, L1 chip, POPC/POPE (80:20) bilayer, 10 mM HEPES, 150 mM NaCl; for P/L Max, peptide-to-lipid maximum binding value: pH 7.4, injection 180 s, dissociation 600 s, nonlinear regression; for Kd: pH 7.4, nonlinear regression, read-out: KD, peptide concentration required to achieve half-maximum binding at equilibrium. The text has this:
Cyclotides are reported to exert their biological activities via membrane binding, particularly by selective binding to lipids containing phosphatidylethanolamine (PE) headgroups. Therefore, to evaluate the functional impact of the single mutation on bracelet cyclotides, the membrane-binding ability of these variants towards PE-containing lipid bilayers was examined using surface plasmon resonance (SPR). The model membrane comprising 80% 1-palmitoyloleoyl-phosphatidylcholine (POPC) and 20% 1-palmitoyloleoyl-phosphatidylethanolamine (POPE) was used. Binding affinity was evaluated by the peptide-to-lipid maximum binding value (P/L max, mol/mol) and the peptide concentration required to achieve half-maximum binding at equilibrium (KD value, μM). […] The negative effect of the [I11G] bracelet cyclotide mutation on lipid binding was expected, as the mutation reduces surface hydrophobicity, a previously reported determinant of membrane binding. The SPR dose-response curves and sensorgrams are shown in Figure S4 in Supplementary Material.
The binding affinity of bracelet cyclotides and their variants toward lipid bilayers was studied using SPR, as described previously. Two synthetic lipids, 1-palmitoyl-2-oleoyl-glycero-3-phosphocholine (POPC) and 1-palmitoyl-2-oleoyl-sn-glycero-3-phosphoethanolamine (POPE), were purchased from Avanti Polar Lipids (USA). Briefly, homogenous, small, unilamellar vesicles composed of POPC/POPE (80:20, mol/mol) were obtained by extruding the vesicle suspension through a 50-nm pore size polycarbonate membrane. L1 sensor chips and BIAcore T200 instrument were used (Cytiva, Marlborough, MA, USA). After the lipid was loaded and formed a bilayer membrane on the L1 chip, peptide solutions were injected over the lipid surface for 180 s and the dissociation was monitored for 600 s. Peptides were tested at concentrations ranging from 4–32 μM. Peptide-to-lipid molar ratio and KD values were calculated by nonlinear regression using GraphPad Prism software (version 8.3.1). Peptide solutions and lipid vesicles were prepared in HEPES buffer (10 mM HEPES, 150 mM NaCl, pH 7.4, filtered) for SPR studies.
(SPR reads the build-up and loss of mass on a sensor chip optically.)

Bridge positions count the residues as written; N and C are the ends. Peptide text beside a SMILES is read from it.

In the case of `CC[C@H](C)[C@@H]1NC(=O)[C@@H]2CSSC[C@@H]3NC(=O)[C@H](C(C)C)NC(=O)[C@H](CCCCN)NC(=O)[C@H](CC(=O)O)NC(=O)[C@H]([C@@H](C)O)NC(=O)[C@@H]4CSSC[C@H](NC(=O)[C@H](CO)NC(=O)[C@H](CCC(=O)O)NC(=O)CNC(=O)[C@H](CSSC[C@H](NC(=O)CNC(=O)[C@H]([C@@H](C)CC)NC(=O)[C@H](C(C)C)NC(=O)CNC(=O)[C@H](CO)NC1=O)C(=O)N[C@@H](CO)C(=O)N4)NC(=O)[C@@H]1CCCN1C(=O)[C@H]([C@@H](C)O)NC(=O)CNC(=O)[C@H](CC(N)=O)NC(=O)[C@H](CC(C)C)NC(=O)[C@H](Cc1ccc(O)cc1)NC3=O)C(=O)N[C@@H](C(C)C)C(=O)N[C@@H](Cc1ccc(O)cc1)C(=O)N[C@@H](CC(C)C)C(=O)N1CCC[C@H]1C(=O)N2` [[I11L]kB5] (cyclo(CGESCVYLPCISGVIGCSCTDKVCYLNGTP); disulfide 1-17, 5-19, 10-24), the “CC50 on HeLa (half maximum cytotoxic concentration)” value (“CC50 on HeLa” below) in the data set on HeLa cells came out at 4.31 ± 0.48 µM. In addition, in data set [1], the “P/L Max, peptide-to-lipid maximum binding value” (from here on “P/L Max”) turned out to be 0.22 ± 0.00 mol/mol and the Kd was 4.95 ± 0.12 µM.

Consider `CC[C@H](C)[C@@H]1NC(=O)[C@@H]2CSSC[C@@H]3NC(=O)[C@H](C(C)C)NC(=O)[C@H](CCCCN)NC(=O)[C@H](CC(=O)O)NC(=O)[C@H]([C@@H](C)O)NC(=O)[C@@H]4CSSC[C@H](NC(=O)[C@H](CO)NC(=O)[C@H](CCC(=O)O)NC(=O)CNC(=O)[C@H](CSSC[C@H](NC(=O)CNC(=O)[C@H]([C@@H](C)CC)NC(=O)[C@H](C(C)C)NC(=O)CNC(=O)[C@H](CO)NC1=O)C(=O)N[C@@H](CO)C(=O)N4)NC(=O)[C@@H]1CCCN1C(=O)[C@H]([C@@H](C)O)NC(=O)CNC(=O)[C@H](CC(N)=O)NC(=O)[C@H](CC(C)C)NC(=O)[C@H](Cc1ccc(O)cc1)NC3=O)C(=O)N[C@@H](C(C)C)C(=O)N[C@@H](Cc1ccc(O)cc1)C(=O)NCC(=O)N1CCC[C@H]1C(=O)N2` [[I11G]kB5] (cyclo(CGESCVYGPCISGVIGCSCTDKVCYLNGTP); disulfide 1-17, 5-19, 10-24), for which the “CC50 on HeLa” value in the data set on HeLa cells is greater than 64 µM. Besides, the “P/L Max” value in data set [1] was “n.b”.

As for `CC[C@H](C)[C@@H]1NC(=O)CNC(=O)[C@H](CC(N)=O)NC(=O)[C@H](CCCNC(=N)N)NC(=O)[C@H](Cc2ccc(O)cc2)NC(=O)[C@@H]2CSSC[C@@H]3NC(=O)[C@@H]4CCCN4C(=O)[C@H]([C@@H](C)CC)NC(=O)[C@H](Cc4c[nH]c5ccccc45)NC(=O)[C@H](C(C)C)NC(=O)[C@@H]4CSSC[C@H](NC(=O)[C@H](CO)NC(=O)[C@H](CSSC[C@H](NC(=O)[C@@H]5CCCN5C1=O)C(=O)NCC(=O)N[C@@H](CCC(=O)O)C(=O)N[C@@H](CO)C(=O)N4)NC(=O)CNC(=O)[C@H](C(C)C)NC(=O)[C@H](C)NC(=O)[C@H](CO)NC(=O)[C@H]([C@@H](C)O)NC(=O)[C@H](CC(C)C)NC3=O)C(=O)N[C@@H](CCCCN)C(=O)N[C@@H](CO)C(=O)N[C@@H](CCCCN)C(=O)N[C@@H](C(C)C)C(=O)N2` [cyO9, cycloviolacin O9, reference compound] (cyclo(AVGCSCKSKVCYRNGIPCGESCVWIPCLTS); disulfide 4-18, 6-22, 11-27), the “CC50 on HeLa” value in the data set with HeLa cells came out at 2.35 ± 0.13 µM. Besides, in data set [1], the “P/L Max” value was 0.30 ± 0.01 mol/mol and the Kd was determined as 4.83 ± 0.17 µM.
